Results taken from BindingDB's records for doi:10.1016/s0960-894x(02)00627-3 (Keio University, 2002).
pIC50, pKi: −log10 of the molar value.

Legend:
[1] = target: alpha-L-fucosidase (Bos taurus); assay: Inhibition of bovine kidney alpha-L-fucosidase
[2] = target: alpha-L-fucosidase (Bos taurus); assay: Binding affinity against alpha-L-fucosidase in bovine kidney was determined
[3] = target: alpha-L-fucosidase (Bos taurus); assay: as above; remark: listed apart in the source

pKi [2]	Compound	pIC50 [1]	pKi [3]
7.16	CC1CC(NCc2ccccc2)C(O)C(O)C1O [(1R,2S,3S)-4-Benzylamino-6-methyl-cyclohexane-1,2,3-triol]	6.00	–
–	CCCCNC1CC(C)C(O)C(O)C1O [(1R,2S,3S)-4-Butylamino-6-methyl-cyclohexane-1,2,3-triol]	6.04	7.13
–	CCNC1CC(C)C(O)C(O)C1O [(1R,2S,3S)-4-Ethylamino-6-methyl-cyclohexane-1,2,3-triol]	4.68	6.74
–	CCCCCCCNC1CC(C)C(O)C(O)C1O [(1R,2S,3S)-4-Heptylamino-6-methyl-cyclohexane-1,2,3-triol]	6.57	7.32
–	CCCCCCCCCNC1CC(C)C(O)C(O)C1O [(1S,2S,3R)-4-Methyl-6-nonylamino-cyclohexane-1,2,3-triol]	6.62	6.96
–	CC1CC(NCCc2ccccc2)C(O)C(O)C1O [(1S,2S,3R)-4-Methyl-6-phenethylamino-cyclohexane-1,2,3-triol]	6.62	7.49
–	CC1CC2N=C(NCc3ccccc3)OC2C(O)C1O [(6R,7S,7aS)-2-Benzylamino-5-methyl-3a,4,5,6,7,7a-hexahydro-benzooxazole-6,7-diol]	4.14	–
–	CCCCNC1=NC2CC(C)C(O)C(O)C2O1 [(6R,7S,7aS)-2-Butylamino-5-methyl-3a,4,5,6,7,7a-hexahydro-benzooxazole-6,7-diol]	3.85	–
–	CC1CC2N=C(Nc3ccccc3)OC2C(O)C1O [(6R,7S,7aS)-5-Methyl-2-phenylamino-3a,4,5,6,7,7a-hexahydro-benzooxazole-6,7-diol]	5.12	–
